# Assay results published in PMC11513893, “Discovery of Oral Degraders of the ROS1 Fusion Protein with Potent Activity against Secondary Resistance Mutations” (Journal of Medicinal Chemistry, 2024).
# Columns and labels:
# [1] = system: Ba/F3 CD74-ROS1 non mutant; experiment: Antiproliferation assay (Alamar Blue, 72 h); type: cell-based, mouse; conditions: Mus musculus, BaF3, 72 h, Ba/F3 cells, cell growth inhibition
# Excerpt: (§1) To assess targeted degradation of ROS1 fusion proteins, we first established a mouse pro-B cell line Ba/F3 as a model expressing the CD74-ROS1 oncogene or CD74-ROS1 with clinically observed secondary/tertiary mutations. The Ba/F3 cell line is dependent on interleukin-3 for survival and proliferation. Upon transduction of oncogenic ROS1, Ba/F3 cells become independent of interleukin-3 but dependent on the transduced driver gene.
# (§2) Ba/F3 immortalized murine bone marrow–derived pro-B cells were obtained from Creative Biogene (Shirley, NY) and cultured in RPMI supplemented with 10% FBS and IL3 (0.5 ng/mL). Ba/F3 cells expressing ROS1 variants were maintained in RPMI supplemented with 10% FBS and puromycin (0.7 mg/mL). […] Each compound was dissolved in DMSO and serially diluted in RPMI for cell culture experiments.
# (§3) To assess the 72 h effect of drug treatment on cell proliferation, 2000 to 3000 cells were plated in replicates of three in 96-well plates. The plates were placed in an incubator at 37 °C, 5% CO2 for 72 h. Following drug treatments, the cells were incubated with the Alamar Blue Assay reagent (BioRad), 5 μL each well for 4 h at 37 °C and 5% CO2. Luminescence was measured on a multiplate reader and analyzed. […] IC50 values were determined using a nonlinear regression model with a sigmoidal dose response in GraphPad. The data were collected based on triplicate experiments, and presented as mean ± SD.
# (§4) The resulting virus was used to infect Ba/F3 cells. After retroviral infection, Ba/F3 cells were selected by incubation with puromycin (0.7 mg/mL) for 2 weeks. For Ba/F3 cells infected by the CD74–ROS1 variants, IL3 was withdrawn from the culture medium at least 2 weeks before the experiments.
# Ba/F3 ROS1-G2032R = experiment: Antiproliferation assay; type: cell-based, mouse; conditions: Mus musculus, BaF3; Ba/F3 cells, cell growth inhibition, 72 h
# Excerpt: as §1, §2, §3, §4
# ROS1 = ROS1 degradation in Ba/F3 cells (WES immunoblotting); type: cell-based; conditions: for DC50: concentration needed to reduce ROS1 protein by 50%, Ba/F3 cells; for Dmax (%) (ROS1): maximal degradation of ROS1 in Ba/F3 cells
# Method: Protein levels were analyzed using a WES instrument according to the WES User Guide from ProteinSimple in duplicate experiments. The samples were mixed with the fluorescent 5 master mix (ProteinSimple) and then heated at 95 °C for 5 min. Boiled samples, biotinylated protein ladder, antibody diluent, Streptavidin-HRP, primary antibodies, ProteinSimple horseradish peroxidase conjugated antirabbit or antimouse secondary antibodies, luminol-peroxide, and wash buffer were loaded into the WES plate (Wes 12–230 kDa Prefilled Plates with Split Buffer, ProteinSimple). The plates and capillary cartridges were loaded into the WES instrument, and protein separation, antibody incubation, and imaging were performed according to manufacturer’s instructions. Compass software (ProteinSimple) was used to acquire the data and to generate the virtual blot image reconstruction and chemiluminescence signal intensity electropherograms. […] Protein levels are expressed as the AUC of the peak chemiluminescence intensity. Antibodies against phospho-ROS1(Tyr2274/2334) (E8F5J), ROS1 (D4D6(R)) were obtained from Cell Signaling Technology.
IC50 [1] [nM],IC50 (Ba/F3 ROS1-G2032R) [nM],DC50 (ROS1) [nM],SMILES,Dmax (%) (ROS1) (ROS1)
171 ± 26,8590 ± 1180,204,"Cc1cc(Nc2ncc(Cl)c(Nc3ccccc3S(=O)(=O)C(C)C)n2)c(OC(C)C)cc1C1CCN(C2CCN(CCNc3ccc4c(c3)C(=O)N(C3CCC(=O)NC3=O)C4=O)CC2)CC1 (centres unmarked) [8k, 5-((2-(4-(4-((5-Chloro-4-((2-(isopropylsulfonyl)phenyl)amino)pyrimidin-2-yl)amino)-5-isopropoxy-2-methylphenyl)-[1,4′-bipiperidin]-1′-yl)ethyl)amino)-2-(2,6-dioxopiperidin-3-yl)isoindoline-1,3-dione]",89
66 ± 6,6120 ± 4070,57,"Cc1cc(Nc2ncc(Cl)c(Nc3ccccc3S(=O)(=O)C(C)C)n2)c(OC(C)C)cc1C1CCN(C2CN(CC3CN(c4ccc5c(c4)C(=O)N(C4CCC(=O)NC4=O)C5=O)C3)C2)CC1 (centres unmarked) [8q, 5-(3-((3-(4-(4-((5-Chloro-4-((2-(isopropylsulfonyl)phenyl)amino)pyrimidin-2-yl)amino)-5-isopropoxy-2-methylphenyl)piperidin-1-yl)azetidin-1-yl)methyl)azetidin-1-yl)-2-(2,6-dioxopiperidin-3-yl)isoindoline-1,3-dione]",85
39 ± 8,1530 ± 521,41,"Cc1cc(Nc2ncc(Cl)c(Nc3ccccc3S(=O)(=O)C(C)C)n2)c(OC(C)C)cc1C1CCN(C2CCN(c3ccc4c(c3)C(=O)N(C3CCC(=O)NC3=O)C4=O)CC2)CC1 (centres unmarked) [8j, 5-(4-(4-((5-Chloro-4-((2-(isopropylsulfonyl)phenyl)amino)pyrimidin-2-yl)amino)-5-isopropoxy-2-methylphenyl)-[1,4′-bipiperidin]-1′-yl)-2-(2,6-dioxopiperidin-3-yl)isoindoline-1,3-dione]",88
598 ± 147,> 10000,452,"Cc1cc(Nc2ncc(Cl)c(Nc3ccccc3S(=O)(=O)C(C)C)n2)c(OC(C)C)cc1C1CCN(C2CCN(CCCNc3ccc4c(c3)C(=O)N(C3CCC(=O)NC3=O)C4=O)CC2)CC1 (centres unmarked) [8l, 5-((3-(4-(4-((5-Chloro-4-((2-(isopropylsulfonyl)phenyl)amino)pyrimidin-2-yl)amino)-5-isopropoxy-2-methylphenyl)-[1,4′-bipiperidin]-1′-yl)propyl)amino)-2-(2,6-dioxopiperidin-3-yl)isoindoline-1,3-dione]",54
72 ± 3,> 10000,77,"Cc1cc(Nc2ncc(Cl)c(Nc3ccccc3S(=O)(=O)C(C)C)n2)c(OC(C)C)cc1C1CCN(C2CN(CC3CCN(c4ccc5c(c4)C(=O)N(C4CCC(=O)NC4=O)C5=O)CC3)C2)CC1 (centres unmarked) [8r, 5-(4-((3-(4-(4-((5-Chloro-4-((2-(isopropylsulfonyl)phenyl)amino)pyrimidin-2-yl)amino)-5-isopropoxy-2-methylphenyl)piperidin-1-yl)azetidin-1-yl)methyl)piperidin-1-yl)-2-(2,6-dioxopiperidin-3-yl)isoindoline-1,3-dione]",91
39 ± 34,2770 ± 1080,35,"Cc1cc(Nc2ncc(Cl)c(Nc3ccccc3S(=O)(=O)C(C)C)n2)c(OC(C)C)cc1C1CCN(C2CCN(C3CN(c4ccc5c(c4)C(=O)N(C4CCC(=O)NC4=O)C5=O)C3)CC2)CC1 (centres unmarked) [8m, 5-(3-(4-(4-((5-Chloro-4-((2-(isopropylsulfonyl)phenyl)amino)pyrimidin-2-yl)amino)-5-isopropoxy-2-methylphenyl)-[1,4′-bipiperidin]-1′-yl)azetidin-1-yl)-2-(2,6-dioxopiperidin-3-yl)isoindoline-1,3-dione]",92

# Further lines, the compound ahead of its results:
SMILES,IC50 [1] [nM],IC50 (Ba/F3 ROS1-G2032R) [nM],DC50 (ROS1) [nM],Dmax (%) (ROS1) (ROS1)
"COc1cc(N2CCN(C3CCN(CC4CCN(c5ccc6c(c5)C(=O)N(C5CCC(=O)NC5=O)C6=O)CC4)CC3)CC2)ccc1Nc1ncc(Cl)c(Nc2ccccc2P(C)(C)=O)n1 (centres unmarked) [9h, 5-(4-((4-(4-(4-((5-Chloro-4-((2-(dimethylphosphoryl)phenyl)amino)pyrimidin-2-yl)amino)-3-methoxyphenyl)piperazin-1-yl)piperidin-1-yl)methyl)piperidin-1-yl)-2-(2,6-dioxopiperidin-3-yl)isoindoline-1,3-dione]",21 ± 8,115 ± 12,34,85
"COc1cc(N2CCC(N3CCN(CC4CCN(c5ccc(C(=O)NC6CCC(=O)NC6=O)cc5)CC4)CC3)CC2)ccc1Nc1ncc(Cl)c(Nc2ccccc2P(C)(C)=O)n1 (centres unmarked) [9r, 4-(4-((4-(1-(4-((5-Chloro-4-((2-(dimethylphosphoryl)phenyl)amino)pyrimidin-2-yl)amino)-3-methoxyphenyl)piperidin-4-yl)piperazin-1-yl)methyl)piperidin-1-yl)-N-(2,6-dioxopiperidin-3-yl)benzamide]",120 ± 39,> 10000,123,28
"COc1cc(N2CCC(N3CCN(CCC4CCN(c5ccc(NC6CCC(=O)NC6=O)cc5)CC4)CC3)CC2)ccc1Nc1ncc(Cl)c(Nc2ccccc2P(C)(C)=O)n1 (centres unmarked) [9t, 3-((4-(4-(2-(4-(1-(4-((5-Chloro-4-((2-(dimethylphosphoryl)phenyl)amino)pyrimidin-2-yl)amino)-3-methoxyphenyl)piperidin-4-yl)piperazin-1-yl)ethyl)piperidin-1-yl)phenyl)amino)piperidine-2,6-dione]",61 ± 3,> 10000,56,45
"Cc1cc(Nc2ncc(Cl)c(Nc3ccccc3S(=O)(=O)C(C)C)n2)c(OC(C)C)cc1C1CCN(C2CCN(C3CN(c4cccc5c4C(=O)N(C4CCC(=O)NC4=O)C5=O)C3)CC2)CC1 (centres unmarked) [8f, 4-(3-(4-(4-((5-Chloro-4-((2-(isopropylsulfonyl)phenyl)amino)pyrimidin-2-yl)amino)-5-isopropoxy-2-methylphenyl)-[1,4′-bipiperidin]-1′-yl)azetidin-1-yl)-2-(2,6-dioxopiperidin-3-yl)isoindoline-1,3-dione]",115 ± 22,3660 ± 299,189,67
"C[C@@H](Oc1cc(-c2cnn(C3CCN(CC4CCN(c5cccc6c5C(=O)N(C5CCC(=O)NC5=O)C6=O)CC4)CC3)c2)cnc1N)c1c(Cl)ccc(F)c1Cl (stereo partly drawn) [7c, 4-(4-((4-(4-(6-Amino-5-((R)-1-(2,6-dichloro-3-fluorophenyl)ethoxy)pyridin-3-yl)-1H-pyrazol-1-yl)piperidin-1-yl)methyl)piperidin-1-yl)-2-(2,6-dioxopiperidin-3-yl)isoindoline-1,3-dione]",350 ± 106,> 5000,368,76
"C[C@@H](Oc1cc(-c2cnn(C3CCN(CC4CN(c5cccc6c5C(=O)N(C5CCC(=O)NC5=O)C6=O)C4)CC3)c2)cnc1N)c1c(Cl)ccc(F)c1Cl (stereo partly drawn) [7b, 4-(3-((4-(4-(6-Amino-5-((R)-1-(2,6-dichloro-3-fluorophenyl)ethoxy)pyridin-3-yl)-1H-pyrazol-1-yl)piperidin-1-yl)methyl)azetidin-1-yl)-2-(2,6-dioxopiperidin-3-yl)isoindoline-1,3-dione]",2700 ± 254,> 5000,> 1000,<5
"Cc1cc(Nc2ncc(Cl)c(Nc3ccccc3S(=O)(=O)C(C)C)n2)c(OC(C)C)cc1C1CCN(CCNc2cccc3c2C(=O)N(C2CCC(=O)NC2=O)C3=O)CC1 (centres unmarked) [8a, 4-((2-(4-(4-((5-Chloro-4-((2-(isopropylsulfonyl)phenyl)amino)pyrimidin-2-yl)amino)-5-isopropoxy-2-methylphenyl)piperidin-1-yl)ethyl)amino)-2-(2,6-dioxopiperidin-3-yl)isoindoline-1,3-dione]",176 ± 31,> 10000,225,58
"C[C@@H](Oc1cc(-c2cnn(C3CCN(CC4CN(c5ccc6c(c5)C(=O)N(C5CCC(=O)NC5=O)C6=O)C4)CC3)c2)cnc1N)c1c(Cl)ccc(F)c1Cl (stereo partly drawn) [7f, 5-(3-((4-(4-(6-Amino-5-((R)-1-(2,6-dichloro-3-fluorophenyl)ethoxy)pyridin-3-yl)-1H-pyrazol-1-yl)piperidin-1-yl)methyl)azetidin-1-yl)-2-(2,6-dioxopiperidin-3-yl)isoindoline-1,3-dione]",569 ± 73,> 5000,622,24
